≈ marks a conversion by molar mass, not a printed value. Where two headings read alike, the source gives them in different places.
Tests used:
human platelet PDE III = human platelet PDE III (Homo sapiens, UniProt Q14432); test: biochemical; conditions: for IC50: cAMP substrate
Description: (§1) Phosphodiesterase fractions were separated from 105,000×g of supernatant fractions from human platelets and heart by DEAE-cellulose column chromatography using the method of Timothy et al. (Arch. Biochem. Biophy. 196, 465-474, 1979) with minor modifications. These fractions were designated PDE I, PDE II and PDE III, depending upon the order of their emergence from the DEAE-cellulose column.
(§2) Phosphodiesterase activity was measured by the method of Thompson and Appleman (Biochemistry 10, 311-316, 1971) with slight modifications. The reaction mixture consisted of 25 mM of Tris-HCl (pH 7.4), 5 mM of MgCl2, 1 μM of [^3 H]-cAMP or cGMP (approximate 20,000 cpm), various concentrations of a test compound and the enzyme preparation. After incubation for 10 minutes at 30° C., the reaction was terminated by boiling the reaction mixture for 45 seconds. 5'-[^3 H]-AMP or GMP formed by phosphodiesterase was converted to [^3 H]adenosine or [^3 H]quanosine by snake venom (Botherop Atrox) containing 5'-nucleotidase and the product isolated by a cation exchange resin was counted in a liquid scintillation counter.

human platelet PDE II = test: Inhibitory activity on phosphodiesterase, platelet PDE II (cGMP); assay type: biochemical; conditions: cGMP substrate
Description: as §1, §2

[1] = test system: platelet aggregation induced by Lewis lung cancer (3LL) cells; test: Inhibition on Platelet Aggregation Induced by Cancer Cells (in vitro), 3LL; assay type: cell-based, C57BL/6 mouse; parameters: key: +: Aggregation was observed.; ±: Aggregation was partially inhibited.; -: No aggregation was observed
Description: (§3) It is known nowadays that platelet aggregation plays an important role in metastasis of cancers. […] Tanaka et al. The effect of the compounds of this invention to inhibit the above-described cancer cell-induced platelet aggregation was tested as follows. Cell suspensions of B16 or 3LL were prepared according to the method of Tanaka et al, Invarsion and Metastasis, Vol. 2, 289 (1982). […] Platelet aggregation of the sample system was determined according to the method of Born, and the platelet aggregation inhibitory activity was expressed by the following scale: […]

human heart PDE I = test: Inhibitory activity on phosphodiesterase, heart PDE I (cGMP); assay type: biochemical; conditions: cGMP substrate
Description: as §1, §2

[2] = test system: platelet aggregation induced by B16 melanoma cells; test: Inhibition on Platelet Aggregation Induced by Cancer Cells (in vitro), B16; assay type: cell-based, C57BL/6 mouse; parameters: key: +: Aggregation was observed.; ±: Aggregation was partially inhibited.; -: No aggregation was observed
Description: as §3

human heart PDE III = test: Inhibitory activity on phosphodiesterase, heart PDE III (cAMP); assay type: biochemical; conditions: for IC50: cAMP substrate
Description: as §1, §2

[3] = test system: platelet aggregation (rat platelet-rich-plasma); test: Test of Platelet Aggregation Inhibition (in vitro), rat PRP; assay type: cell-based, Wistar Imamichi rat; conditions: for IC50: Platelet, in vitro, rat blood
Description: (§4) The test was performed as follows in accordance with the method of Ashida et al, Thrombosis and Haemostasis, Vol. 40, 542 (1979).
(§5) Blood was taken by puncture from the heart of a Wistar Imamichi rat under anesthesia with pentobarbital into a syringe containing 1/10 volume of a 3.13% aqueous solution of sodium citrate dihydrate, and the citrated blood was centrifuged to obtain a platelet-rich-plasma (PRP). In the same manner, citrated blood was collected from the vein of a healthy human who had not taken aspirin or any other anti-inflammatory agent since before 10 days, followed by centrifugation to obtain PRP. 5 μl of each test compound was added to 0.445 ml of each of these PRP samples, and the system was warmed at 30° C. for 1 minute. 50 μl of an aggregation inducer (ADP or collagen) was then added thereto, and platelet aggregation was determined according to the method of Born, Nature, Vol. 194, 927 (1962).

platelet aggregation [4] = test: Test of Platelet Aggregation Inhibition (ex vivo, p.o.); assay type: in vivo, Wistar Imamichi rat; conditions: for inhibition at 10 mg/kg: Platelet, po, ex vivo, rat, 10 mg/Kg p.o., 1 hour, *P<0.05, **P<0.01, ***P<0.001; for aggregation inhibitory activity in ADP- or collagen-induced aggregation (in words): orally administered, Table 2
Description: One hour later, citrated blood was taken from the heart, and platelet aggregation was determined in the same manner as described in the in vitro test. The inhibitory activity was compared with that of control and expressed in terms of percent inhibition.

[5] = test system: platelet aggregation (human platelet-rich-plasma); test: Test of Platelet Aggregation Inhibition (in vitro), human PRP; assay type: cell-based; conditions: human blood, ADP-induced
Description: as §4, §5

human platelet PDE I = human platelet PDE I (Homo sapiens, UniProt O76074); test: Inhibitory activity on phosphodiesterase, platelet PDE I (cGMP); assay type: biochemical; conditions: cGMP substrate
Description: as §1, §2

[6] = Solubility Test (water-solubility)
circulatory system = test: Test of Influence on Circulatory System (blood pressure, heart beats); assay type: in vivo, SLC-Wistar rat; conditions: rat, 50 mg/Kg p.o.
Description: 5 or 6 male normal SLC-Wistar rats per group (body weight: 205-255 g) orally received 50 mg/Kg of the test compound, and the blood pressure (tail cuff method) and the heart beats were measured with the passage of time in order to elucidate influences of the test compound on the circulatory system.

platelet aggregation [7] = test: Test of Platelet Aggregation Inhibition (ex vivo; i.v.); assay type: in vivo, Wistar Imamichi rat; conditions: iv, 0.25 h, rat, i.v. 67 μg/Kg/min, 15 min
Description: As test animals, 5 to 6 Wistar Imamichi rats (body weight: about 260 g) that had been allowed food and water ad libitum were used per group. The test compound was dissolved in a physiological saline solution and continuously injected over a period of 10 or 15 minutes to the rats under anesthesia with pentobarbital through the femoral vein. Immediately after completion of the administration, citrated blood was collected from the heart, and platelet aggregation was determined in the same manner as in the test in vitro in Test Example 2.

[8] = ADP-induced, read-out: IC50, platelet aggregation inhibition in vitro, ADP
[9] = collagen-induced, read-out: IC50, platelet aggregation inhibition in vitro, Collagen
[10] = ADP, read-out: ex vivo % inhibition of platelet aggregation, ADP
[11] = collagen, read-out: ex vivo % inhibition of platelet aggregation, Collagen

Chain of human platelet PDE III (Q14432 whole entry): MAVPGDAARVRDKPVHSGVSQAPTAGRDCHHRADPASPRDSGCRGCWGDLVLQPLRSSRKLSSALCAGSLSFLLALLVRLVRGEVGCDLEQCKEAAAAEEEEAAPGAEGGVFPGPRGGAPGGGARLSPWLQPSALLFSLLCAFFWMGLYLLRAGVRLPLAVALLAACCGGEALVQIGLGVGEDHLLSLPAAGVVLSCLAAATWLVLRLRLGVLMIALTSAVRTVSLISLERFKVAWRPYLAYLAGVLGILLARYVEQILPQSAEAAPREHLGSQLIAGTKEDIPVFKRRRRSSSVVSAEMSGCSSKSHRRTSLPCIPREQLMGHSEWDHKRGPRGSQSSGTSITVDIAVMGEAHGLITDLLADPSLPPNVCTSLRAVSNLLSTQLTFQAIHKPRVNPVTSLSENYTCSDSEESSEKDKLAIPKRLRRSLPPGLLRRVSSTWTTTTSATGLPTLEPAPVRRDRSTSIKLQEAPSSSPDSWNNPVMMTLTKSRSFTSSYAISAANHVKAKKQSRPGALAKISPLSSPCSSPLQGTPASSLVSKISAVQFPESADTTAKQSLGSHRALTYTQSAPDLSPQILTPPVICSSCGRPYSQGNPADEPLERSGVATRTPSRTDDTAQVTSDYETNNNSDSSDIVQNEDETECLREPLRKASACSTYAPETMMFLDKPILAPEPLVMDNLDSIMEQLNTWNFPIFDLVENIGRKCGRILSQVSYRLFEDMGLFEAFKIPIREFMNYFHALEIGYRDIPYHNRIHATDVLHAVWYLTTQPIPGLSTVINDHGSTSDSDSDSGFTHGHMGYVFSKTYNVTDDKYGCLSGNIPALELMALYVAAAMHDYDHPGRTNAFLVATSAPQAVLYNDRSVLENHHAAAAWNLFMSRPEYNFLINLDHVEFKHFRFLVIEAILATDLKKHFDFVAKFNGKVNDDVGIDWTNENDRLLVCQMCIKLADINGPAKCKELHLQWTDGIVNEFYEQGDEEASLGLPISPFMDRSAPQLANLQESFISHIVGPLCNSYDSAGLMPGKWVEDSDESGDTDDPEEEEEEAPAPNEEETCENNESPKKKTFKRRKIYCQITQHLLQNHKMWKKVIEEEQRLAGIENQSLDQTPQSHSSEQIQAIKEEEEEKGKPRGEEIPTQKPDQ

SMILES	IC50 (human platelet PDE II) [µM]	IC50 (human heart PDE I) [µM]	IC50 (human heart PDE III) [nM]	IC50 [3, 8] [nM]	IC50 [3, 9] [nM]	inhibition at 10 mg/kg (platelet aggregation [4]; [10]) [%]	inhibition at 10 mg/kg (platelet aggregation [4]; [11]) [%]	IC50 [5] [µM]	IC50 (human platelet PDE I) [µM]	Increase in Heart Beat (circulatory system; 1 hr, **P<0.01) [%]	Reduction in Blood Pressure (circulatory system; 1 hr, *P<0.05, **P<0.01) [%]	Increase in Heart Beat (circulatory system; 2 hr, **P<0.01) [%]	Reduction in Blood Pressure (circulatory system; 2 hr, *P<0.05, **P<0.01) [%]	Increase in Heart Beat (circulatory system; 3 hr, **P<0.01) [%]	Reduction in Blood Pressure (circulatory system; 3 hr, **P<0.01) [%]	Increase in Heart Beat (circulatory system; 5 hr, **P<0.01) [%]	Reduction in Blood Pressure (circulatory system; 5 hr, **P<0.01) [%]	Increase in Heart Beat (circulatory system; 6 hr, *P<0.05, **P<0.01) [%]	Reduction in Blood Pressure (circulatory system; 6 hr, *P<0.05, **P<0.01) [%]	solubility ([6]; tap water, pH 2) [µg/mL]	also measured
Cl.Cl.O.O=C1CN2Cc3cc(N4CCCCC4)c(Cl)cc3N=C2N1 [Example 16, 8-Chloro-7-piperidino-1,2,3,5-tetrahydroimidazo[2,1-b] quinazolin-2-one dihydrochloride monohydrate]	> 30	> 10	95	400	460	34	76	12.5	30												IC50 Ratio (PDE II) Heart/Platelet (human platelet PDE III): 11.6; selectivity to platelet PDE (in words) (human platelet PDE III; Table 6): high selectivity to platelet PDE; IC50 (human platelet PDE III): 8.2 nM; Inhibition on platelet aggregation induced by 3LL ([1]; sample concn. 1 μM): +; Inhibition on platelet aggregation induced by 3LL ([1]; sample concn. 3 μM): -; Inhibition on platelet aggregation induced by 3LL ([1]; sample concn. 10 μM): -; Inhibition on platelet aggregation induced by B16 ([2]; sample concn. 0.3 μM): ±; Inhibition on platelet aggregation induced by B16 ([2]; sample concn. 1 μM): -; water-solubility (in words) [6]: low water-solubility
O=C1CN2Cc3c(ccc(Cl)c3Cl)N=C2N1 [BL-4162, 6,7-dichloro-1,2,3,5-tetrahydro[2,1-b]quinazolin-2-one]	3.3	> 10	96	800	20	8	53	1.2	3.9	28	11	37	16	31	17	31	14	31	13	< 10	Increase in Heart Beat (circulatory system; 4 hr, **P<0.01): 37%; Reduction in Blood Pressure (circulatory system; 4 hr, **P<0.01): 14%; aggregation inhibitory activity in ADP- or collagen-induced aggregation (in words) (platelet aggregation [4]): widely varied depending on the individual animal and, therefore, cannot be regarded significant; solubility ([6]; water, pH 4, water): < 10 µg/mL
CN(C)c1ccc2c(c1)CN1CC(=O)NC1=N2 [Example 21, 7-dimethylamino-1,2,3,5-tetrahydroimidazo[2,1-b]quinazolin-2-one]	57	> 100	1400	5400	1400	29	48	7.2	70	19	1.0	22	5.0	20	5.0	23	5.0	15	1.0	> 100000	IC50 Ratio (PDE II) Heart/Platelet (human platelet PDE III; Heart/Platelet): 1.1; IC50 (human platelet PDE III): 1300 nM; inhibition at 0.067 mg/kg (platelet aggregation [7]; ADP, *P<0.05, read-out: Percent Inhibition of platelet aggregation, ADP): 23%; inhibition at 0.067 mg/kg (platelet aggregation [7]; collagen, *P<0.05, read-out: Percent Inhibition of platelet aggregation, Collagen): 71%; activity on heart PDE (in words) (human heart PDE III; Table 6): strong activity on heart PDE; platelet aggregation inhibitory activity (in words) [3]: strong platelet aggregation inhibitory activity; water-solubility (in words) [6]: water-soluble; solubility ([6]; water, pH 4, water): 180 µg/mL (≈ 782 µM)
Cc1cccc2c1CN1CC(=O)NC1=N2.Cl [BL-3459, 6-methyl-1,2,3,5-tetrahydroimidazo[2,1-b]quinazolin-2-one hydrochloride]				5000	760	31	54	1.7		18	23	20	28	17	26	18	34	19	35	< 100	Reduction in Blood Pressure (circulatory system; 24 hr, *P<0.05): 12%; aggregation inhibitory activity in ADP- or collagen-induced aggregation (in words) (platelet aggregation [4]): widely varied depending on the individual animal and, therefore, cannot be regarded significant; solubility ([6]; water, pH 4, water): < 10 µg/mL

Reference: patent publication US4610987A, “Imidazoquinazolin-2-one compounds” (Daiichi Seiyaku Co., Ltd., priority 1983, dated 1986)
